Assay results published in ChEMBL document CHEMBL1201862, “PubChem BioAssay data set” (2004).
The source made the active and inactive calls.

Tests used:
[1] = molecular target: T1, Ubiquitin-conjugating enzyme E2 N (Homo sapiens, UniProt P61088); assay type: functional
T1 sequence (P61088 whole entry): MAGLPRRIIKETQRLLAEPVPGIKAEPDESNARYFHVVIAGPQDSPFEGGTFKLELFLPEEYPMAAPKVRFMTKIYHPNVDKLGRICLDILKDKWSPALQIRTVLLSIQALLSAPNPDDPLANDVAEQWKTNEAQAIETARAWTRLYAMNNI

[2] = molecular target: T2, Bcl-2-related protein A1 (Mus musculus, UniProt Q07440); assay type: functional;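 further: confirmatory dose–response counterscreen on Bfl-1, used to check hits from a UBC13 polyubiquitin inhibitor campaign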
T2 sequence (Q07440 whole entry): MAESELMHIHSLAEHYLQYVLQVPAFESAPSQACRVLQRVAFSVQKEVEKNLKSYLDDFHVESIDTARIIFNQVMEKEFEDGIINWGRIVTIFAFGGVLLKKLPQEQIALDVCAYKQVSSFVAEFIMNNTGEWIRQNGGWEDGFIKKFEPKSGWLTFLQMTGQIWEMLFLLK

[3] = molecular target: T1, Ubiquitin-conjugating enzyme E2 N; assay type: functional; remark: listed apart in the source
[4] = molecular target: G-protein coupled receptor 55 (Homo sapiens, UniProt Q9Y2T6); test: blockers of GPR55 signalling, imaged – imaging, image-based, counter-screen for GPR35 antagonist project, SAR follow-up (AID 2397); assay type: functional
Chain of G-protein coupled receptor 55 (Q9Y2T6 whole entry): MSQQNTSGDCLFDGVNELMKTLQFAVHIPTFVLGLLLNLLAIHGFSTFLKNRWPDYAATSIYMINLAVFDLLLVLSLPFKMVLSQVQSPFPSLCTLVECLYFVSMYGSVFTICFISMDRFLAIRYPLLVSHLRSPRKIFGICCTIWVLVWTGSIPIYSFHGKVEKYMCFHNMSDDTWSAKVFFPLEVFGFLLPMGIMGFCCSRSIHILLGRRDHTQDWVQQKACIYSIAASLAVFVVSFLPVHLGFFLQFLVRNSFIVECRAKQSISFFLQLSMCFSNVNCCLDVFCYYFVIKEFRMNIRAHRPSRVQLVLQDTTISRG

[5] = Luminescence Cell-Based Dose Retest to Confirm Inhibitors of Cancer Stem Cells. [Related pubchem assays (depositor defined):AID2717, AID2721]; assay type: functional; conditions: Homo sapiens
[6] = viability loss of HMLE_sh_eGFP cells – cell-based, luminescence, counter-screen for HMLE_sh_ECad selective toxicity project, dose response (AID 463074); assay type: functional, Homo sapiens;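 further: HMLE human mammary epithelial cells expressing control shRNA against eGFP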
[7] = molecular target: T3, Protein skinhead-1 (Caenorhabditis elegans, UniProt P34707); assay type: functional
T3 sequence (P34707 whole entry): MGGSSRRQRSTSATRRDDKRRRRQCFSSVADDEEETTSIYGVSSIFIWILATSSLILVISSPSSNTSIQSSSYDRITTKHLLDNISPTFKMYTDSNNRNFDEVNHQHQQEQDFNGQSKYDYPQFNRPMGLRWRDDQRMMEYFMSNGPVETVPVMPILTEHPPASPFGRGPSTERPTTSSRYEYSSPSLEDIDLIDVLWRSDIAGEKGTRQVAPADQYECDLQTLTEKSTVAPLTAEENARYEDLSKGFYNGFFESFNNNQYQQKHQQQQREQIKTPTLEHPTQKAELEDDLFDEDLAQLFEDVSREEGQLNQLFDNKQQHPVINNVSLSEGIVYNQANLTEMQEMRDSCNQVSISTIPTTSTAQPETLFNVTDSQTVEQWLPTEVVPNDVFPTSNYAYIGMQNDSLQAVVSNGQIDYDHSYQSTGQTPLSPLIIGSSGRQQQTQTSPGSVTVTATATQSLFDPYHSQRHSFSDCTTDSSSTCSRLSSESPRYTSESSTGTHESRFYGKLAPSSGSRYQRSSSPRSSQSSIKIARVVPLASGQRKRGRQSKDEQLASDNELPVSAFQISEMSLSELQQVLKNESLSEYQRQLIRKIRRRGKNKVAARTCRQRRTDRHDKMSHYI

[8] = molecular target: T4, Heat shock factor protein 1 (Mus musculus, UniProt P38532); test: decrease of HSF1-responsive luciferase luminescence – cell-based, NIH3T3, dose retest, confirmation (AID 2382); assay type: functional;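 further: NIH3T3 fibroblasts with HSF1-driven luciferase reporter stressed by proteasome inhibitor MG132; luminescence from HSF1-driven luciferase expression after 8 hours of MG132 stress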
T4 sequence (P38532 whole entry): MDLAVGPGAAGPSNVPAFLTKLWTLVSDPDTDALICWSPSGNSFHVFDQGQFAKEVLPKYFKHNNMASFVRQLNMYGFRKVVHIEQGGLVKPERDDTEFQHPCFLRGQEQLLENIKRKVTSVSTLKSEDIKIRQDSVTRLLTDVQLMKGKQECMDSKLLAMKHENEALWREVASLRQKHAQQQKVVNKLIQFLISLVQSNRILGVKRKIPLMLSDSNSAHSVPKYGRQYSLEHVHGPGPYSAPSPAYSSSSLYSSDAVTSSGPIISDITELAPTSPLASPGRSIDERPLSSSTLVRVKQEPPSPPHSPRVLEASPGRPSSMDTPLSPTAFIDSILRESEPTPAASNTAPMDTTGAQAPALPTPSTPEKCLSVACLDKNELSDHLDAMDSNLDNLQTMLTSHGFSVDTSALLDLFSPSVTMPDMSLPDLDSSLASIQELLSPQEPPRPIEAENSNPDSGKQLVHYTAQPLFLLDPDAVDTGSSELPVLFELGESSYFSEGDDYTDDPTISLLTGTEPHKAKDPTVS

[9] = Luminescence Cell-Based Dose Confirmation HTS to Identify Inhibitors of Platelet Dense Granule Release. [Related pubchem assays: 1663 (Primary HTS), 1678 (Summary of Project)]; assay type: functional
[10] = blockade of melanocortin 4 receptor signaling – cell-based, plate reader, cherry pick, counter-screen for LGR2 antagonist project, dose response (AID 743444); assay type: functional;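 further: transfected HEK 293 cells stimulated with alpha-MSH peptide; potency of inhibitors of the alpha-MSH evoked signal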
[11] = Luminescence-based counterscreen assay for KLF5 inhibitors: dose response cell-based high throughput screening assay to identify cytotoxic compounds using the IEC-6 intestinal epithelial cell line. [Related pubchem assays: 1700 (Primary screen.), 1834 (Confirmation screen.), 1858 (Summary AID.), 1905 (Counterscreen.)]; assay type: functional
[12] = toxicity toward HepG2 liver cells – cell-based, plate reader, cherry-pick, antagonist series, cytotoxicity control, dose response (AID 743416); assay type: functional
[13] = test system: BJ; test: cells; assay type: functional, cell-based; conditions: Homo sapiens
[14] = DRD fibroblast viability loss – cell-based, non-viral oncogenic, luminescence, dose response (AID 1934); assay type: functional; conditions: Homo sapiens
[15] = test system: BJ; test: BJ-TERT fibroblast viability loss – cell-based, RAS-independent, luminescence, dose response (AID 1933); assay type: functional; conditions: Homo sapiens
[16] = test system: BJ; test: growth inhibition of engineered Ras-driven BJ cells – cell-based, alamar blue fluorescence, cherrypicked samples, dose response (AID 2631); assay type: functional; conditions: Homo sapiens;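 further: confirmatory dose-response assay in RAS-dependent BJ fibroblasts engineered with TERT, LT and ST, with cytotoxicity read by fluorescence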
[17] = viability loss in HEK293 cells – cell-based, plate reader, cherry-picked samples, cytotoxicity control, dose response (AID 743446); assay type: functional
[18] = A549 cell cytotoxicity, dose response, cytotoxicity control, plate reader, cherry-pick, antagonist series (AID 743412); assay type: functional, cell-based
[19] = test system: BJ; test: BJ-TERT-LT-ST fibroblast viability loss – cell-based, RAS-independent, luminescence, dose response (AID 1935); assay type: functional; conditions: Homo sapiens;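 further: BJ fibroblasts immortalized with TERT plus LT and ST oncogenes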
[20] = test system: Jurkat; test: blockers of NF-kB activation in T cells – Jurkat, luciferase reporter, luminescence, B- and T-cell, dose response (AID 489004); assay type: functional, cell-based; conditions: Homo sapiens;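 further: NF-kB luciferase reporter Jurkat cells stimulated with PMA plus ionomycin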
[21] = reduction of Shn3 3'UTR-driven luciferase in osteoblasts – cell-based, Clone20 osteoblasts, firefly luciferase, cherry-picked, dose response (AID 624132); assay type: functional;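 further: firefly luciferase luminescence from reporter carrying the Shn3 3'UTR in osteoblasts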
[22] = HEK-293T viability loss, compound-treated – cell-based, uHTS hits, cytotoxicity control for B/T-cell NF-kB inhibitor project, dose response (AID 489019); assay type: functional;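 further: IC50 reflects cytotoxicity as loss of cell viability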
[23] = non-specific 3'UTR reporter inhibition in Clone20-Shn3RL – cell-based, Renilla luciferase, cherry-picked, counter-screen for Shn3 inhibitor project, dose response (AID 624133); assay type: functional
[24] = blockers of bursicon-stimulated LGR2 cAMP reporter – cell-based, HEK293, CRE-luciferase reporter, cherry pick, set 2, dose response (AID 743343); assay type: functional;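 further: transfected cells were stimulated with diluted bursicon conditioned medium after compound addition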
[25] = loss of viability in HepG2 cells – cell-based, CellTiter-Glo, cherry-picked, cytotoxicity control for Shn3 inhibitor project, dose response (AID 624134); assay type: functional

## O=C(NNC(=O)c1nn(-c2ccc(F)cc2)ccc1=O)c1ccc(C(F)(F)F)cc1
[1]
  IC50: 16.7 µM (active)
[2]
  IC50: > 20 µM (inactive)
[3]
  IC50: 10.2 µM (active)

## Clc1ccccc1Cn1ncc2c(N3CCN(c4ccccc4)CC3)ncnc21
[4]
  IC50: > 32 µM (inactive)

## CN(C)/N=C/c1ccc(Sc2ccc([N+](=O)[O-])cc2[N+](=O)[O-])o1
[5]
  AC50: 22.5 µM (active)
[6]
  AC50: 30.2 µM (active)

## c1ccc(-c2ccc(-c3nc(-c4ccccn4)no3)cc2)cc1
[7]
  IC50: > 100 µM (inactive)
[8]
  EC50: < 0.16 µM (active)
[9]
  EC50: 0.189 µM (active)
[10]
  AC50: 0.261 µM (active)
[11]
  IC50: 9.09 µM (active)
[12]
  AC50: 4.67 µM (active)
[13]
  EC50: 1.69 µM (active)
[14]
  EC50: 3.27 µM (active)
[15]
  EC50: 3.64 µM (active)
[16]
  EC50: > 133 µM (inactive)
[17]
  AC50: 6.22 µM (active)
[18]
  AC50: 5.48 µM (active)
[19]
  EC50: 9.38 µM (inconclusive)
[20]
  IC50: 1.17 µM (active)
[21]
  AC50: 3.75 µM (active)
[22]
  IC50: > 80 µM (inactive)
[23]
  AC50: 32.7 µM (active)
[24]
  AC50: 0.236 µM (active)
[25]
  AC50: 5.26 µM (active)
